Results as given in BindingDB's records for PubMed 38503166 (University of Paris).
Numbered stars: 1 amine (or outer) side, 2 acyl side, 3 side chain; on linkers, the order of the positions; unused ones are H or OH. Square brackets hold non-standard residues; d marks the D form. Peptide text beside a SMILES is read from it. * marks the point of attachment. Ala(1H-tetrazol-5-yl) = N[C@@H](Cc1nnn[nH]1)C(=O)O; Gly(cPent) = N[C@H](C(=O)O)C1CCCC1; X1 = C[C@H](N[*:1])C(=O)C(=O)[*:2]; Chg = N[C@H](C(=O)O)C1CCCCC1; OAll = C=CCO*

What follows are compounds tested against Subtilisin-like protease 1 (Plasmodium vivax) (assay: Inhibition of Plasmodium vivax SUB1 catalytic domain).

| SMILES | IC50 [nM] |
| --- | --- |
| C=CCOC(=O)CC[C@H](NC(=O)[C@H](CC(=O)O)NC(=O)C(=O)[C@H](C)NC(=O)[C@H](C)NC(=O)[C@@H](NC(=O)[C@@H](NC(C)=O)C1CCCC1)[C@@H](C)O)C(N)=O | 70 |
| C=CCOC(=O)CC[C@H](NC(=O)[C@H](CC(=O)O)NC(=O)C(=O)[C@H](C)NC(=O)[C@H](C)NC(=O)[C@@H](NC(=O)[C@@H](NC(C)=O)[C@@H](C)CC)[C@@H](C)O)C(N)=O (Ac-ITA[X1]DE(OAll)-NH2) | 100 |
| C=CCOC(=O)CC[C@H](NC(=O)[C@H](Cc1nnn[nH]1)NC(=O)C(=O)[C@H](C)NC(=O)[C@H](C)NC(=O)[C@@H](NC(=O)[C@@H](NC(C)=O)[C@@H](C)CC)[C@@H](C)O)C(N)=O (Ac-ITA[X1][Ala(1H-tetrazol-5-yl)]E(OAll)-NH2) | 2220 |
| C=CCOC(=O)CC[C@H](NC(=O)[C@H](CC(=O)O)NC(=O)C(=O)[C@H](C)NC(=O)[C@H](C)NC(=O)[C@@H](NC(=O)[C@@H](NC(C)=O)C1CCCCC1)[C@@H](C)O)C(N)=O (Ac-[Chg]TA[X1]DE(OAll)-NH2) | 150 |
| CC(=O)N[C@H](C(=O)N[C@H](C(=O)N[C@@H](C)C(=O)N[C@@H](C)C(=O)C(=O)N[C@@H](CC(=O)O)C(N)=O)[C@@H](C)O)C1CCCC1 (Ac-[Gly(cPent)]TA[X1]D-NH2) | 150 |
